Results from patent US10688195B2, “Polymyxin B-coated nanoparticles” (Northwestern University, priority 2016, dated 2020).

How the values were obtained:
[1] = mice, 3 mg/kg PB dose; cited from earlier work
[2] = rats, PB alone; cited from earlier work
PA = conditions: free PB for PA; cited from earlier work
[3] = Serum peak concentration of free PB in mice (literature, ref. 83, and scaling); type: in vivo; conditions: 4 mg/kg, estimated by scaling from the 3 mg/kg dose
Experimental: An appropriate starting dose of free PB in mice is estimated by parameter scaling (ref 57; incorporated by reference in its entirety) to attain Cmax exposures that approximate concentrations obtained in human serum. […] Studies are initiated with a PB dose of 4 mg/kg in mice given by tail vein injection every 12 hr. Mice are monitored for 7 days for signs of toxicity (altered respiratory rate, lack of grooming, decreased activity, weight loss). The dose is increased by 1 mg/kg increments until toxicity is observed. Doses that cause more than temporary symptoms are considered the minimal toxic dose, and the next lower dose will be designated the MTD. The MTD of […] is determined in the same manner, starting with the PB molar equivalent MTD of […].

PA strain PA99 = experiment: Mouse PA abscess model, treatment injected at the site of infection; type: in vivo, Pseudomonas aeruginosa; conditions: mice, data not shown
Experimental: FIG. 17. AuNP-PB administration at time of infection with PA prevents abscess formation. Mice were injected subcutaneously (SC) with 2×10^6 CFU of PA strain PA99 in 25 ul of PBS, and were then immediately treated with 50 ul PBS (SC), AuNP-PB (SC, equivalent of 2 ug PB), AuNP (without PB, SC, equivalent amount), or free PB (1 ug IV). SC injections were at the site of the abscess. Abscess areas were measured at 17 hr post-infection. Each symbol represents a distinct mouse. (A) Injections 5 min post-infection; (B) Injections 2 hr post-infection.
Experiments conducted during development of embodiments herein employed a mouse PA abscess model in which the heterogenous AuNP-PB are injected directly into the site of infection. This assay has the advantage of determining whether AuNP-PB kill bacteria in vivo in the absence of PK concerns.

Substance: polymyxin B [PB]
- Mean peaks (serum) [1]: ~4 mg/L
- Mean half-life [2]: 1.5 h
- MIC (PA): 0.5 to 1.0 µg/mL
- Cmax [3]: 5300 ng/mL
- Bacterial loads (PA strain PA99): below the limit of detection
